Results on 21 compounds are retold here after patent US8716326B2, “Isoindolinone derivatives, preparation method thereof and a pharmaceutical composition comprising same” (Korea Research Institute of Chemical Technology, priority 2009, dated 2014).

This test has as its system Runx2. As to the kind of experiment: Runx2 activity, 6xOSE2-Luc luciferase reporter in transfected C2C12 cells. It counts as cell-based, Mouse. The note with it: 24 hrs; for fold induction at 2.5 µM / fold induction at 5 µM / fold induction at 10 µM / fold induction at 20 µM: Mus musculus, read-out: luciferase activity relative to control set as 1. As for the experimental part: Mouse premyoblast cell (C2C12 cell) was transfected using receptor vector 6xOSE2-Luc in order to investigate the activity of the amide compound of the present invention on Runx2.
Specifically, the receptor vector 6xOSE2-Luc was prepared by inserting an artificial promoter linked by six tandem copies of the OSE2 (osteoblast specific element-2) into vector pGL3 (Promega; Madison, Wis., U.S.A.), and then, cloned into the C2C12 cell to be transfected (Kim et al., Journal of Cellular Biochemistry, 91: 1239-1247, 2004). The OSE2 is the binding site of Runx2 in the promoter of osteocalcin which is a bone marker.
C2C12 cells (5,000 cells/well) were plated onto 96-well plates using 10% FBS (fetal bovine serum; Hyclone)-containing DMEM (Dulbecco's Modified Eagle's Medium), the medium was replaced with 5% FBS-containing DMEM after 24 hrs, and treated with each of the amide compounds obtained in Examples 1 to 94 at various concentrations of 2.5 μM, 5.0 μM, 10 μM, and 20 μM. As a control, dimethyl sulfoxide (DMSO) vehicle was applied to the cell in an amount same as that of the amide compound. After 24 hrs, the luciferase activity in the cell lysate was measured by using Dual-Luciferase Reporter Assay System (Promega). The luciferase activity of the amide compound of the present invention was calculated as a value relative to that observed for the control which was set as 1.

As to `COc1ccc(-c2c3c(cc(OC)c2OC)C(=O)N(Cc2ccc(C(=O)Nc4ccccc4N)cc2)C3)cc1` [Example 5, N-(2-aminophenyl)-4-((5,6-dimethoxy-4-(4-methoxyphenyl)-1-oxoisoindolin-2-yl)methyl)benzamide], the fold induction at 2.5 µM (2.5 μM) came out at 30.4. The fold induction at 5 µM (5.0 μM) was determined as 25.3. Also, the fold induction at 10 µM (10 μM) worked out at 17.7. Where the note is “20 μM”, the fold induction at 20 µM was 15.4.

Take `COc1ccc(-c2cccc3c2CN(Cc2ccc(C(=O)Nc4ccccc4N)cc2)C3=O)cn1` [Example 22, N-(2-aminophenyl)-4-((4-(6-methoxypyridin-3-yl)-1-oxoisoindolin-2-yl)methyl)benzamide]: for the setting “2.5 μM”, the fold induction at 2.5 µM turned out to be 12.4. Where the note is “5.0 μM”, the fold induction at 5 µM turned out to be 9.5. Also, the fold induction at 10 µM (10 μM) was 10.2. Where the note is “20 μM”, the fold induction at 20 µM was 10.3.

`COc1ccc(-c2cccc3c2CN(Cc2ccc(C(=O)Nc4ccccc4N)cc2)C3=O)cc1` [Example 15, N-(2-aminophenyl)-4-((4-(4-methoxyphenyl)-1-oxoisoindolin-2-yl)methyl)benzamide]: the fold induction at 2.5 µM (2.5 μM) is 7.4. Further, the fold induction at 5 µM (5.0 μM) was 10.4. The fold induction at 10 µM (10 μM) is 12. The fold induction at 20 µM (20 μM) worked out at 14.

As to `COc1cc2c(c(Br)c1OC)CN(Cc1ccc(C(=O)Nc3ccccc3N)cc1)C2=O` [Example 1, N-(2-aminophenyl)-4-((4-bromo-5,6-dimethoxy-1-oxoisoindolin-2-yl)methyl)benzamide], where the note is “2.5 μM”, the fold induction at 2.5 µM is 21.4. Moreover, for the setting “5.0 μM”, the fold induction at 5 µM was 26.2. In addition, for the setting “10 μM”, the fold induction at 10 µM was 19.9. In addition, the fold induction at 20 µM (20 μM) stood at 15.8.

Turning to `COc1cc2c(c(-c3ccc(C(F)(F)F)cc3)c1OC)CN(Cc1ccc(C(=O)Nc3ccccc3N)cc1)C2=O` [Example 6, N-(2-aminophenyl)-4-((4-(4-(trifluoromethyl)phenyl)-5,6-dimethoxy-1-oxoisoindolin-2-yl)methyl)benzamide], under “2.5 μM”, the fold induction at 2.5 µM worked out at 14.2. Further, under “5.0 μM”, the fold induction at 5 µM stood at 18.3. Also, the fold induction at 10 µM (10 μM) came out at 17.2. The fold induction at 20 µM (20 μM) was 9.3.

As to `Cc1c(C(=O)NCCCCCC(=O)Nc2ccccc2N)cccc1-c1ccncc1` [Example 84, N-(5-(2-aminophenylcarbamoyl)pentyl)-2-methyl-3-(4-pyridinyl)-benzamide], for the setting “2.5 μM”, the fold induction at 2.5 µM came to 1.9. The fold induction at 5 µM (5.0 μM) amounted to 3.3. Also, the fold induction at 10 µM (10 μM) was 7.8. Besides, under “20 μM”, the fold induction at 20 µM was found to be 17.3.

`O=C(CCCCCN1Cc2cc(-c3ccccc3)ccc2C1=O)NO` [Example 49, N-hydroxy-6-(1-oxo-5-phenylisoindolin-2-yl)hexanamide]: the fold induction at 2.5 µM (2.5 μM) was found to be 4.8. For the same compound, for the setting “5.0 μM”, the fold induction at 5 µM is 10.6. For the same compound, under “10 μM”, the fold induction at 10 µM was determined as 28.1. Moreover, for the setting “20 μM”, the fold induction at 20 µM was determined as 26.5.

With `Nc1ccccc1NC(=O)c1ccc(CN2Cc3c(Br)cccc3C2=O)cc1` [Example 9, N-(2-aminophenyl)-4-((4-bromo-1-oxoisoindolin-2-yl)methyl)benzamide], the fold induction at 2.5 µM (2.5 μM) worked out at 12.4. Besides, the fold induction at 5 µM (5.0 μM) is 11.3. Further, the fold induction at 10 µM (10 μM) was found to be 9.7. The fold induction at 20 µM (20 μM) was determined as 9.4.

With `N#Cc1ccc(-c2cccc3c2CN(Cc2ccc(C(=O)Nc4ccccc4N)cc2)C3=O)cc1` [Example 20, N-(2-aminophenyl)-4-[4-(4-cyanophenyl)-1-oxo-2,3-dihydro-1H-isoindol-2-yl]methylbenzamide], where the note is “2.5 μM”, the fold induction at 2.5 µM was 16.2. Moreover, the fold induction at 5 µM (5.0 μM) came to 19.4. The fold induction at 10 µM (10 μM) amounted to 19.3. For the same compound, the fold induction at 20 µM (20 μM) was 16.8.

On to `Nc1ccccc1NC(=O)c1ccc(CN2Cc3c(cccc3-c3ccc(C(F)(F)F)cc3)C2=O)cc1` [Example 13, N-(2-aminophenyl)-4-((4-(4-(trifluoromethyl)phenyl)-1-oxoisoindolin-2-yl)methyl)benzamide], for which, where the note is “2.5 μM”, the fold induction at 2.5 µM turned out to be 7.9. The fold induction at 5 µM (5.0 μM) amounted to 8. Moreover, the fold induction at 10 µM (10 μM) is 9.3. For the same compound, the fold induction at 20 µM (20 μM) is 7.2.

Turning to `Cc1c(C(=O)NCc2ccc(C(=O)Nc3ccccc3N)cc2)cccc1-c1cccc(N)c1` [Example 72, N-(2-aminophenyl)-4-((2-methyl-3-(3-aminophenyl)benzmido)methyl)benzamide], the “luciferase activity relative to control set as 1” value runs as follows: (2.5 μM) 17.6 fold; (5.0 μM) 29.8 fold; (10 μM) 29.6 fold; (20 μM) 31.4 fold.

Consider `Cc1c(C(=O)NCCCCCC(=O)Nc2ccccc2N)cccc1-c1ccccc1` [Example 81, N-(5-(2-aminophenylcarbamoyl)pentyl)-2-methyl-3-phenyl-benzamide], for which, for the setting “2.5 μM”, the fold induction at 2.5 µM is 1.6. For the same compound, the fold induction at 5 µM (5.0 μM) amounted to 3.4. For the setting “10 μM”, the fold induction at 10 µM stood at 7.5. Further, the fold induction at 20 µM (20 μM) worked out at 10.7.

On to `Cc1cc(C(=O)NCCCCCC(=O)Nc2ccccc2N)ccc1-c1ccccc1` [Example 86, N-(5-(2-aminophenylcarbamoyl)pentyl)-3-methyl-4-phenyl-benzamide], for which, under “2.5 μM”, the fold induction at 2.5 µM turned out to be 1.2. Besides, under “5.0 μM”, the fold induction at 5 µM was found to be 1.9. Further, the fold induction at 10 µM (10 μM) turned out to be 3.4. Further, where the note is “20 μM”, the fold induction at 20 µM stood at 3.7.

Take `Nc1ccccc1NC(=O)c1ccc(CN2Cc3c(cccc3-c3cccnc3)C2=O)cc1` [Example 14, N-(2-aminophenyl)-4-((1-oxo-4-(pyridin-3-yl)isoindolin-2-yl)methyl)benzamide]: for the setting “2.5 μM”, the fold induction at 2.5 µM was found to be 12. Also, the fold induction at 5 µM (5.0 μM) was found to be 15.7. Besides, the fold induction at 10 µM (10 μM) came out at 15.4. In addition, under “20 μM”, the fold induction at 20 µM turned out to be 16.9.

With `COc1cc2c(c(-c3cccnc3)c1OC)CN(Cc1ccc(C(=O)Nc3cc(-c4cccs4)ccc3N)cc1)C2=O` [Example 48, N-(2-amino-5-(thiophen-2-yl)phenyl)-4-((5,6-dimethoxy-1-oxo-4-(pyridin-3-yl)isoindolin-2-yl)methyl)benzamide], the fold induction at 2.5 µM (2.5 μM) turned out to be 3.7. Further, the fold induction at 5 µM (5.0 μM) was 7.2. Where the note is “10 μM”, the fold induction at 10 µM turned out to be 11.4. The fold induction at 20 µM (20 μM) turned out to be 14.3.

`Nc1ccccc1NC(=O)c1ccc(CN2Cc3c(cccc3-c3ccc(Oc4ccccc4)cc3)C2=O)cc1` [Example 29, N-(2-aminophenyl)-4-((1-oxo-4-(4-phenoxyphenyl)isoindolin-2-yl)methyl)benzamide]: where the note is “2.5 μM”, the fold induction at 2.5 µM came out at 3.4. The fold induction at 5 µM (5.0 μM) came to 5.6. Further, the fold induction at 10 µM (10 μM) was 10.5. The fold induction at 20 µM (20 μM) stood at 10.

`Nc1ccccc1NC(=O)c1ccc(CN2Cc3c(cccc3-c3ccc4ccccc4c3)C2=O)cc1` [Example 21, N-(2-aminophenyl)-4-((4-(naphthalen-2-yl)-1-oxoisoindolin-2-yl)methyl)benzamide]: where the note is “2.5 μM”, the fold induction at 2.5 µM is 6.4. In addition, the fold induction at 5 µM (5.0 μM) was 8.7. The fold induction at 10 µM (10 μM) was 11.6. Besides, the fold induction at 20 µM (20 μM) stood at 11.7.

For the compound `Nc1ccccc1NC(=O)c1ccc(CN2Cc3cc(-c4ccc5c(c4)OCO5)ccc3C2=O)cc1` [Example 66, N-(2-aminophenyl)-4-((5-(benzo[d][1,3]dioxol-6-yl)-1-oxoisoindolin-2-yl)methyl)benzamide], for the setting “2.5 μM”, the fold induction at 2.5 µM was 14.2. For the same compound, the fold induction at 5 µM (5.0 μM) is 9.4. Also, for the setting “10 μM”, the fold induction at 10 µM worked out at 7.2. In addition, the fold induction at 20 µM (20 μM) stood at 7.2.

On to `COc1cc(C(=O)NCc2ccc(C(=O)Nc3ccccc3N)cc2)c(C)c(-c2ccc(C(F)(F)F)cc2)c1OC` [Example 78, N-(2-aminophenyl)-4-((2-methyl-3-(4-trifluoromethylphenyl)-4,5-dimethoxy-benzamido)methyl)benzamide], for which, where the note is “2.5 μM”, the fold induction at 2.5 µM is 6.4. In addition, the fold induction at 5 µM (5.0 μM) was determined as 12.8. Also, where the note is “10 μM”, the fold induction at 10 µM amounted to 19.1. In addition, under “20 μM”, the fold induction at 20 µM was 21.1.

As for `Nc1ccccc1NC(=O)c1ccc(CN2Cc3c(cccc3-c3ccc(-c4ccccc4)cc3)C2=O)cc1` [Example 25, N-(2-aminophenyl)-4-[1-oxo-4-(4-phenylphenyl)-2,3-dihydro-1H-isoindol-2-yl]methylbenzamide], under “2.5 μM”, the fold induction at 2.5 µM is 6.8. Further, the fold induction at 5 µM (5.0 μM) came to 11.3. Also, where the note is “10 μM”, the fold induction at 10 µM worked out at 17.9. Under “20 μM”, the fold induction at 20 µM was 19.7.

Take `Nc1ccccc1NC(=O)c1ccc(CN2Cc3c(cccc3-c3ccc(F)cc3)C2=O)cc1` [Example 30, N-(2-aminophenyl)-4-((4-(4-fluorophenyl)-1-oxoisoindolin-2-yl)methyl)benzamide]: the fold induction at 2.5 µM (2.5 μM) is 13.5. Moreover, under “5.0 μM”, the fold induction at 5 µM came to 20.5. Moreover, under “10 μM”, the fold induction at 10 µM came out at 28.8. For the same compound, the fold induction at 20 µM (20 μM) stood at 30.4.
